According to BindingDB's records for doi:10.1080/14756360310001640913 (Saarland University, 2004):
pIC50: −log10 of the molar value.

These molecules were tested against T1, Steroid 17-alpha-hydroxylase/17,20 lyase (Homo sapiens, UniProt P05093) (assay: CYP17 Assay). Details: pH 7.4; 37 °C.
T1 sequence (P05093 whole entry): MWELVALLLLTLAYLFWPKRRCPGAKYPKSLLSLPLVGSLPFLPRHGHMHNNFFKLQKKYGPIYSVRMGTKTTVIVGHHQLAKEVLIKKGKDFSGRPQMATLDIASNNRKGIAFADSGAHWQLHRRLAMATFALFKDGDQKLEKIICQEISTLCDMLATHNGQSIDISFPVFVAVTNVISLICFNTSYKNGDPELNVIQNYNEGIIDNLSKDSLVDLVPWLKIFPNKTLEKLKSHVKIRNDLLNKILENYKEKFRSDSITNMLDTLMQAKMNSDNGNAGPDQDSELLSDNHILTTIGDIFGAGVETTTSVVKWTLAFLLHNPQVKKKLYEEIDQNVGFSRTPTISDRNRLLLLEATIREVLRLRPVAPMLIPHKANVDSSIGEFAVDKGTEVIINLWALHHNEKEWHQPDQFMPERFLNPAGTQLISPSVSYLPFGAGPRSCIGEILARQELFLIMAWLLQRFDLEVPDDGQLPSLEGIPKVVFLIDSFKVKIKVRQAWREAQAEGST

SMILES	pIC50
COc1ccc2c(c1)CCC(Cc1cnc[nH]1)=C2C	6.96
Oc1ccc(-c2ccc(Cn3ccnc3)cc2)cc1O [4-[4-(1H-imidazol-1-ylmethyl)phenyl]benzene-1,2-diol]	6.92
COc1cc2c(cc1OC)C(C)=C(Cc1cnc[nH]1)CC2 [5-[(6,7-dimethoxy-1-methyl-3,4-dihydronaphthalen-2-yl)methyl]-1H-imidazole]	6.31
COc1cc2c(cc1O)C(C)=C(Cc1cnc[nH]1)CC2 [dihydronaphthalene derivative]	5.96
